Assay results published in patent US7745450B2, “Pyrazolo[4,3-d]pyrimidines, processes for their preparation and methods for therapy” (Institute of Experimental Botany, priority 2002, dated 2010).
Read-outs that look alike come from different tables or passages of the source.

Assays:
MMK1 protein kinase = MMK1 protein kinase (Vicia faba, UniProt A0AAV1B7B8); assay: MMK1 protein kinase activity; type: biochemical
Procedure: Protein extraction and purification of pant CDK by binding to p13^suc1-beads or immunopurification with an antibody specific to the cdc2a-MS protein was carried out as described previously (Bögre et al. 1997, Plant Physiol. 113, 1997, 841-852). The MMK1 protein kinase was purified with a specific antibody from Vicia faba extracts as described by Bögre et al. 1997a, Plant Cell 9, 75-83). Protein kinase activity was measures as described above in Example 20. The quantification of radioactivity incorporated into histone H1 or myelin basic protein was undertaken using phosphoimager (FIG. 2).

[1] = system: CEM (human lymphoblastoid leukemia); assay: In vitro cytotoxic activity, Calcein AM; type: cell-based; settings: Homo sapiens, 72 h, three days
Procedure: We have been using the following cell lines: HELA (human cervical carcinoma), MCF7 (human breast adenocarcinoma), NIH 3T3 (mouse fibroblasts), HOS (human osteogenic sarcoma), HL 60 (human promyelocytic leukemia), G 361 (human malignant melanoma), K562 (human erythroleukemia), CEM (human lymphoblastoid leukemia). Tested drugs were added to the cell cultures in six different concentration and kept at 37° C. and 5% CO2 for three days. All cell lines were grown in DMEM medium (Gibco BRL) supplemented with 10% (v/v) fetal bovine serum and L-glutamine and maintained at 37° C. in a humidified atmosphere with 5% CO2. 10^4 cells were seeded into each well of 96 well plate, allowed to stabilize for at least 2 h and then tested compounds were added at various concentrations ranging from 200 to 0.2 μM in triplicates. Three days after drug addition Calcein AM solution (Molecular Probes) was added and let to enter the cells for 1 hour. Fluorescence of viable cells was quantified employing Fluoroskan Ascent (Microsystems).

B16 = assay: In vitro cytotoxic activity, Calcein AM; type: cell-based; settings: Mus musculus, B16, 72 h, three days
cdk1/cyclin B (CDC2) = cdk1/cyclin B (CDC2) (Homo sapiens, UniProt P06493); assay: CDK inhibition assay, cdk1/cyclin B (CDC2) kinase, histone phosphorylation; type: biochemical
Procedure: Selected compounds were tested for cdk1/cyclin B and cdk2/cyclin E inhibitory activity to determine the basic relationships between their interaction energy of docked complex and the inhibitory activity. Cdk2/cyclin E complex was produced in SIP insect cells co-infected with appropriate baculoviral construct. The cells were harvested 70 hours post infection in lysis buffer (50 mM Tris 7.4 pH, 150 mM NaCl, 5 mM EDTA, 20 mM NaF, 1% Tween 20, protease inhibitors) for 30 min on ice and the soluble fraction was recovered by centrifugation at 14.000 g for 10 min. The protein extract was stored at −80° C. until use. The final point test system for kinase activity measurement was used to carry out experiments on the kinetics under linear conditions. The assay mixture contained 1 mg/ml histone (Sigma Type III-S), 15 μM ATP, 0.2 μCi [γ-^32P] ATP and tested compound in a final volume of 20 μl, all in reaction buffer: 50 mM Hepes 7.4 pH, 10 mM MgCl2, 5 mM EGTA, 10 mM 2-glycerolphosphate, 1 mM NaF, 1 mM DTT and protease inhibitors. […] The measurement of kinase inhibition employed the digital imaging analyzer BAS 1800. The kinase activity was expressed as a percentage of maximum activity and the IC50 value was determined by graphic analysis. The kinase activity is expressed as a percentage of maximum activity, the apparent inhibition constants are determined by graphic analysis from dose-response curves presented on FIG. 1.

IκB-α kinase = IκB-α kinase inhibition, in vitro kinase assay; type: biochemical
[2] = system: Cytokinin-dependent tobacco callus Nicotiana tabacum L. cv. Wisconsins 38; assay: Tobacco callus bioassay for cytotoxicity (herbicidal activity); type: cell-based; settings: Nicotiana tabacum, 672 h
Procedure: The novel compounds have also been tested in tobacco callus bioassay for cytotoxicity (herbicidal activity) and induction of cell death. The compounds to be tested were dissolved in dimethylsulfoxide (DMSO) and the solution brought up to 10^−3 M with distilled water. […] Cytokinin-dependent tobacco callus Nicotiana tabacum L. cv. Wisconsins 38 Murashige-Skoog medium, containing per 1 liter: 4 μmol nicotinic acid, 2.4 μmol pyridoxine hydrochloride, 1.2 μmol thiamine, 26.6 μmol glycine, 1.37 μmol glutamine, 1.8 μmol myo.inositol, 30 g of sucrose, 8 g of agar, […] α-naphthylacetic acid and 0.5 μmol 6-benzylaminopurine. Sub cultivation was carried out every three weeks. Fourteen days before the bioassay, the callus tissue was transferred to the media without 6-benzylaminopurine. Compounds were tested with two different concentrations of 6-benzylaminopurine (10^−5 M and 10^−6 M). Inhibitory growth activity was determined from the increase in fresh callus weight after four weeks of cultivation. Five replicates were prepared for each concentration tested and the entire test was repeated at least twice.

[3] = read-out: 10^−5 M BAP IC50, 10^−5 M 6-benzylaminopurine, four weeks
[4] = read-out: 10^−6 M BAP IC50, 10^−6 M 6-benzylaminopurine, four weeks

cdk1/cyclin B (CDC2), sequence (P06493 whole entry, species assumed): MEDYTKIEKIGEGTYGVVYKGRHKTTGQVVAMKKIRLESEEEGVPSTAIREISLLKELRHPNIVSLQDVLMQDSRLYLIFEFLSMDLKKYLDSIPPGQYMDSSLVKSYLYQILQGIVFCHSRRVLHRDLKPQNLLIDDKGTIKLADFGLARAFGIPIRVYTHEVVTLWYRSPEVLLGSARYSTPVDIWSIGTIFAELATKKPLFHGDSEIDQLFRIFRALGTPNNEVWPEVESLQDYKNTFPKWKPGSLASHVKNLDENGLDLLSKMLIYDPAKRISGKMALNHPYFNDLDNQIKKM
cdk1/cyclin B (CDC2), sequence (P14635 whole entry partner, species assumed): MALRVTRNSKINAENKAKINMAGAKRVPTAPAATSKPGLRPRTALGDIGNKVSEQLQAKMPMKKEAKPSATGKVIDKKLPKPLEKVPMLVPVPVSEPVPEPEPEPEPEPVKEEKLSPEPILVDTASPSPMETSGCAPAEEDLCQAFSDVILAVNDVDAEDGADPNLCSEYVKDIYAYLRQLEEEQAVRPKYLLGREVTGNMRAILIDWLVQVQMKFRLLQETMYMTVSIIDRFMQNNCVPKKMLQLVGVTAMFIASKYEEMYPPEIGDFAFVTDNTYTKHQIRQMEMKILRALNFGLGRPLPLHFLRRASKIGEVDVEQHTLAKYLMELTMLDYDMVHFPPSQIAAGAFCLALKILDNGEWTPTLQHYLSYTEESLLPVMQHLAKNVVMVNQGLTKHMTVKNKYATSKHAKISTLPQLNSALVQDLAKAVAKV
MMK1 protein kinase, sequence (A0AAV1B7B8 1-394): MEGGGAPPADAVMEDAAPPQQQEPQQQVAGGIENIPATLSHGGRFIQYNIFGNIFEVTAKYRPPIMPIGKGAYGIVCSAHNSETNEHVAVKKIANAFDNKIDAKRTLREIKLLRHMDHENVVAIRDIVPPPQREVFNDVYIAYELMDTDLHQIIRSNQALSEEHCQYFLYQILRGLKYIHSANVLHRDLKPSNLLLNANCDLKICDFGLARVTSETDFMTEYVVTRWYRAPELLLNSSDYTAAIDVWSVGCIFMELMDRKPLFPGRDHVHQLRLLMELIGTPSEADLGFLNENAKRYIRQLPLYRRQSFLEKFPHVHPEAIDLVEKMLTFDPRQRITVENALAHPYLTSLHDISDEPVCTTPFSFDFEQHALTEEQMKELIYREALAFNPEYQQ

IC50 (MMK1 protein kinase) [µM] | IC50 (cdk1/cyclin B (CDC2)) [µM] | IC50 (IκB-α kinase) [µM] | Compound | GI50 [1] [µM] | GI50 (B16) [µM] | IC50 [2, 3] [µM] | IC50 [2, 4] [µM]
0.25 |  |  | Cc1n[nH]c2c(Nc3ccc(N)c(Cl)c3)nc(NCCO)nc12 | 16.2 | 17.5 |  | 
3.3 |  |  | CC(=O)Oc1ccccc1CNc1nc(NCCO)nc2c(C)n[nH]c12 | 14.5 | 16.2 |  | 
24 |  |  | Cc1n[nH]c2c(NCc3ccc(O)c(O)c3)nc(NCCO)nc12 | 15.5 | 18.7 |  | 
3.4 |  |  | CC(=O)Oc1cccc(CNc2nc(NCCO)nc3c(C)n[nH]c23)c1 | 15.4 | 16.7 |  | 
0.005 |  |  | CC(=O)c1cccc(CNc2nc(N[C@@H](CO)C(C)C)nc3c(C(C)C)n[nH]c23)c1 | 8.6 | 9.4 |  | 
0.2 |  |  | CC[C@H](CO)Nc1nc(NCc2ccccc2OC(C)=O)c2[nH]nc(C(C)C)c2n1 [listing 1 of 2 here] | 13.8 | 19.3 |  | 
0.3 |  |  | Cc1n[nH]c2c(Nc3ccc(Cl)c(C(=O)O)c3)nc(NCCO)nc12 | 6.5 | 7.2 |  | 
2.5 |  |  | Cc1n[nH]c2c(Nc3ccccc3)nc(NCCO)nc12 [2-hydroxyethylamino / anilino / methyl] | 10.2 | 12.4 |  | 
2.8 |  |  | Cc1n[nH]c2c(NCc3ccc(Cl)c(N)c3N)nc(NCCO)nc12 | 5.6 | 6.5 |  | 
0.15 |  |  | CC(C)c1n[nH]c2c(N(C)CCc3ccc(O)c(O)c3)nc(N[C@@H](CO)C(C)C)nc12 | 8.4 | 9.7 |  | 
0.3 |  |  | Cc1n[nH]c2c(Nc3cc(N)cc(Cl)c3)nc(NCCO)nc12 | 13.4 | 14.5 |  | 
0.0035 |  |  | CC[C@H](CO)Nc1nc(NCc2c(N)cccc2Cl)c2[nH]nc(C(C)C)c2n1 [listing 1 of 2 here] | 4.6 | 8.3 |  | 
 | 0.003 | 0.009 | CC[C@H](CO)Nc1nc(Nc2ccc(Cl)cc2)c2[nH]nc(C(C)C)c2n1 |  |  | 35 | 3.9
 | 0.002 | 0.009 | CC[C@H](CO)Nc1nc(Nc2ccc(N)c(Cl)c2)c2[nH]nc(C(C)C)c2n1 |  |  | 48 | 8.7
 | 0.01 | 0.03 | CC[C@H](CO)Nc1nc(NCc2ccccc2)c2[nH]nc(C(C)C)c2n1 |  |  | > 50 | 28
 | 0.012 | 0.0035 | CC[C@H](CO)Nc1nc(NCc2c(N)cccc2Cl)c2[nH]nc(C(C)C)c2n1 [listing 2 of 2 here] |  |  | > 50 | 29.7
 | 0.07 | 0.4 | CC[C@H](CO)Nc1nc(NCc2cccc(OC(C)=O)c2)c2[nH]nc(C(C)C)c2n1 [listing 2 of 2 here] |  |  | > 50 | 28.7
 | 0.0009 | 0.002 | CC(C)c1n[nH]c2c(NCc3c(N)cccc3Cl)nc(N[C@@H](CO)C(C)C)nc12 |  |  | 38 | 3.7
 | 0.004 | 0.012 | CC(C)c1n[nH]c2c(Nc3cccc(Cl)c3)nc(NC3CCCCC3N)nc12 (centres unmarked) |  |  | > 50 | 28
 | 2 | 5 | Cc1n[nH]c2c(NCc3ccccc3)nc(NCCN)nc12 [2-aminoethylamino; benzylamino; methyl] |  |  | > 50 | > 50
 | 0.02 | 0.04 | CC(C)c1n[nH]c2c(NCc3ccc(Cl)c(N)c3N)nc(N[C@@H](CO)C(C)C)nc12 |  |  | 15.6 | 0.4
 | 0.001 | 0.002 | CC(C)c1n[nH]c2c(Nc3ccc(Cl)c(C(=O)O)c3)nc(N[C@@H](CO)C(C)C)nc12 |  |  | > 50 | 9.6
 | 0.08 | 0.024 | CC[C@H](CO)Nc1nc(NCc2ccc(Cl)c(N)c2)c2[nH]nc(C(C)C)c2n1 |  |  | 25.7 | 1.3

Second part, the compound before the results:

Compound | IC50 (MMK1 protein kinase) [µM] | IC50 (cdk1/cyclin B (CDC2)) [µM] | IC50 (IκB-α kinase) [µM] | GI50 [1] [µM] | GI50 (B16) [µM] | IC50 [2, 3] [µM] | IC50 [2, 4] [µM]
Cc1n[nH]c2c(Nc3ccc(Cl)c(N)c3)nc(NCCO)nc12 | 0.24 |  |  | 5.7 | 6.4 |  | 
CC(C)c1n[nH]c2c(Nc3cc(N)cc(Cl)c3)nc(N[C@@H](CO)C(C)C)nc12 | 0.015 |  |  | 9.5 | 14.5 |  | 
CC[C@H](CO)Nc1nc(NCc2ccccc2C(C)=O)c2[nH]nc(C(C)C)c2n1 | 0.015 |  |  | 11.9 | 16.3 |  | 
CC[C@H](CO)Nc1nc(NCc2cccc(C(C)=O)c2)c2[nH]nc(C(C)C)c2n1 | 0.04 |  |  | 11.5 | 19.1 |  | 
COc1cc(O)c(CNc2nc(NCCO)nc3c(C)n[nH]c23)c(O)c1 | 0.09 |  |  | 2.8 | 4.7 |  | 
CC(C)c1n[nH]c2c(NC(CO)c3ccccc3)nc(NC(CO)C(C)C)nc12 (centres unmarked) | 0.15 |  |  | 2.6 | 4.8 |  | 
CC(=O)c1cccc(CNc2nc(NCCO)nc3c(C)n[nH]c23)c1 | 0.9 |  |  | 13.5 | 14.2 |  | 
Cc1n[nH]c2c(N(C)Cc3ccc(O)c(O)c3)nc(NCCO)nc12 | 1.95 |  |  | 10.3 | 11.5 |  | 
CC[C@H](CO)Nc1nc(NCc2cc(O)c(Cl)cc2O)c2[nH]nc(C(C)C)c2n1 | 0.015 |  |  | 2.5 | 4.8 |  | 
Cc1cccc(CNc2nc(NCCO)nc3c(C)n[nH]c23)c1O | 0.34 |  |  | 2.8 | 3.1 |  | 
CC[C@H](CO)Nc1nc(NCc2cccc(OC(C)=O)c2)c2[nH]nc(C(C)C)c2n1 [listing 1 of 2 here] | 0.4 |  |  | 18.5 | 23.7 |  | 
CC[C@H](CO)Nc1nc(NCc2cccc(OC)c2O)c2[nH]nc(C(C)C)c2n1 |  | 0.004 | 0.012 |  |  | > 50 | 14.8
CC(C)c1n[nH]c2c(NCc3cccc(Cl)c3O)nc(N[C@@H](CO)C(C)C)nc12 |  | 0.002 | 0.004 |  |  | > 50 | 9.4
CC[C@H](CO)Nc1nc(NCc2ccccc2OC(C)=O)c2[nH]nc(C(C)C)c2n1 [listing 2 of 2 here] |  | 0.1 | 0.2 |  |  | 45 | 12.4
CC(C)c1n[nH]c2c(Nc3ccc(C(=O)O)c(Cl)c3)nc(N[C@@H](CO)C(C)C)nc12 |  | 0.0009 | 0.002 |  |  | 26 | 1.4
CC[C@H](CO)Nc1nc(Nc2ccc(O)c(C(=O)O)c2)c2[nH]nc(C(C)C)c2n1 |  | 0.01 | 0.03 |  |  | > 50 | > 50
CC(=O)Oc1cccc(CNc2nc(N[C@@H](CO)C(C)C)nc3c(C(C)C)n[nH]c23)c1 |  | 0.02 | 0.06 |  |  | 36 | 8.5
Cc1n[nH]c2c(NCc3ccccc3)nc(NC3CCCCC3N)nc12 (centres unmarked) |  | 0.03 | 0.09 |  |  | > 50 | 48
CC(C)c1n[nH]c2c(Nc3ccc(O)c(C(=O)O)c3)nc(N[C@@H](CO)C(C)C)nc12 |  | 0.0004 | 0.001 |  |  | 18 | 1.2
CC[C@H](CO)Nc1nc(Nc2ccc(C(=O)O)c(Cl)c2)c2[nH]nc(C(C)C)c2n1 |  | 0.002 | 0.004 |  |  | > 50 | 12.8
